{"source": "patent US12310986B2", "about": "“Compositions and methods for the treatment of cancer cells by induction of cytotoxic oxidative stress” (Board of Regents, The University of Texas System, priority 2018, dated 2025)", "key": {"HCT116 xenograft tumors": {"tested_on": "HCT116 xenograft tumors", "experiment": "HCT116 (KRAS mutant) xenograft tumors in nude mice", "assay_type": "in vivo", "settings": "VC or D-VC 1.5 g/kg, ATO 7 mg/kg; for effect on tumor growth compared to PBS (control) injections: 15 injections; for scarring on tumors (mice with scarring): 5 mice per group; for tumor weight compared to PBS treated tumors: after 15 injections, one way ANOVA", "experimental": "Pictured are the xenograft tumors of each of the 5 mice per treatment condition. Mice were injected intraperitoneally with PBS (control), Vitamin C (1.5 g/kg), D-Vitamin C (1.5 g/kg), ATO 7 mg/kg), ATO (7 mg/kg)+Vitamin C (1.5 g/kg) or ATO (7 mg/kg)+D-Vitamin C (1.5 g/kg). Mice were injected daily for 6 days and after 6th injection mice were rested for one day.\nPictured are the xenograft tumors of each of the 5 mice per treatment condition as described in FIG. 6 after 12 injections (2 weeks of treatment).\nTo avoid glucose fluctuations in blood, the food was withdrawn from mice 2 hrs prior drug injections and food was given back to mice after 2 hrs of the VC or D-VC injection.\n1.5 million human HCT116 (KRAS mutant) cancer cells were injected into nude mice, 5 mice per experimental group. After 10 days, and after when tumors reached at least 0.8 cm in size, mice were injected daily with either PBS, PBS+1.5 g/kg vitamin C, PBS+7 mg/kg ATO. PBS+7 mg/kg ATO+1.5 g/kg vitamin C, PBS+1.5 g/kg D-Vitamin C, or PBS+7 mg/kg ATO+1.5 g/kg D-Vitamin C. The mice were injected daily, 6 times per week, and rested one day per week, for a total of 15 total drug injections. […] Initially, ATO was injected at 3 mg/kg, while vitamin C or D-VC were injected at 1 g/kg. The following day, ATO was used at 7 mg/kg, while vitamin C and D-VC were used at […].\nThe injection scheme was ATO injection/2 hour gap/vitamin C or D-VC injection. […] Further, it is also known that the effect of vitamin C treatment on KRAS mutant cancer cells is glucose dependent, To avoid glucose fluctuations in the blood and enhance the effect of vitamin C and D-VC, the drug injections were performed following withdrawal of the food from mice 2 hours prior ATO injections, and the food was only provided again 2 hours following the vitamin C or D-VC injections."}, "HCT116 cells [1]": {"tested_on": "HCT116 cells", "experiment": "Reactive oxygen species (ROS) detection by flow cytometry, Mito Sox Red, HCT116 cells", "assay_type": "cell-based, human", "settings": "VC or D-VC 1 mM, ATO 5 μM", "experimental": "FIG. 4: Detection of reactive oxygen species (ROS) by flow cytometry. HCT116 cells were treated with the indicated compounds as described in the FIG. 1 and analyzed by flow cytometry to detect the presence of reactive oxygen species by Mito Sox Red reagent. Mito Sox Red is a reagent from Invitrogen™ catalog #LSM360084\nFIG. 5: Graphical representation of the presence of reactive oxygen species (ROS) as detected by flow cytometry. The ROS detection data shown in the FIG. 4 is presented as a graph.\nIt was anticipated that the cause of cytotoxic stress and apoptosis was the accumulation of reactive oxygen species (ROS), so HCT116 cells were treated as above and assayed for the presence of ROS by flow cytometry (FIG. 4). […] Treatment with 5 μM ATO increased the cells showing ROS accumulation to 26% (FIGS. 4 and 5)."}, "HCT116 cancer cells": {"tested_on": "HCT116 cancer cells", "experiment": "Cytotoxicity in colorectal HCT116 cancer cells, 72 hours treatment (cell images)", "assay_type": "cell-based, human", "settings": "HCT116, 72 hours; VC or D-VC 1 mM, ATO 5 μM; compared to buffer", "experimental": "Colorectal HCT116 cancer cells were treated with the indicated solutions for 72 hours: control (phosphate buffered saline, PBS, was added to the culture medium in 1:1000 dilution), VC 1 mM (Vitamin C was used at 1 mM concentration), D-VC 1 mM (D-Vitamin C was used at 1 mM concentration), ATO 5 μM (Arsenic Trioxide was used at 5 μM concentration) and the combination of VC 1 mM with ATO 5 μM or D-VC 1 mM with ATO 5 μM. The cell images are shown with the labeling indicating cell treatments.\nColorectal HCT116 cancer cells were treated for 72 hours with PBS, a 1 mM Vitamin C (VC) solution, 1 mM D-Vitamin CVC (D-VC also referred as D-ascorbic acid), 5 μM arsenic trioxide (ATO), Vitamin C and ATO (VC/ATO), or D-VC and ATO (D-VC/ATO) (FIG. 1)."}, "HCT116 cells [2]": {"tested_on": "HCT116 cells", "experiment": "Apoptosis flow cytometric assay, Annexin V FITC, HCT116 cells", "assay_type": "cell-based, human", "settings": "HCT116, 72 hours; VC or D-VC 1 mM, ATO 5 μM", "experimental": "FIG. 2: Apoptotic flow cytometric analysis of HCT116 cancer following drug treatments. HCT116 cells were treated with the drugs as described in the FIG. 1 and following treatments the cells were stained with Annexin-V FITC and sorted.\nFIG. 3: Graphical representation of apoptosis by flow cytometry data. Apoptotic flow cytometric data shown in the FIG. 2 is presented as a graph."}, "[3]": {"settings": "after 12 injections (2 weeks of treatment)"}}, "note": "“Also recorded” adds a separate entry of the source.", "data": [{"molecule": "arsenic trioxide [ATO]", "values": [{"measurement": "effect on tumor growth compared to PBS (control) injections", "setting": "HCT116 xenograft tumors", "result": "inhibitory effect on tumor growth"}, {"measurement": "scarring on tumors (mice with scarring)", "setting": "HCT116 xenograft tumors; [3]", "result": "2/5"}, {"measurement": "tumor weight compared to PBS treated tumors", "setting": "HCT116 xenograft tumors", "result": "lower compared to the PBS treated tumors, however these differences were not statistically significant"}, {"measurement": "cells accumulating ROS", "setting": "HCT116 cells [1]", "result": 26, "unit": "%"}, {"measurement": "cytotoxicity", "setting": "HCT116 cancer cells", "result": "mild cytotoxic impact"}, {"measurement": "apoptosis (Annexin V FITC)", "setting": "HCT116 cells [2]", "result": "low increase in apoptosis over the buffer control"}]}, {"molecule": "O=C1O[C@H]([C@@H](O)CO)C(O)=C1O", "note": "[VC, L-ascorbic acid]", "values": [{"measurement": "effect on tumor growth compared to PBS (control) injections", "setting": "HCT116 xenograft tumors", "result": "inhibitory effect on tumor growth"}, {"measurement": "tumor weight compared to PBS treated tumors", "setting": "HCT116 xenograft tumors", "result": "lower compared to the PBS treated tumors, however these differences were not statistically significant"}, {"measurement": "cells accumulating ROS", "setting": "HCT116 cells [1]", "result": "about 5%"}, {"measurement": "apoptosis (Annexin V FITC)", "setting": "HCT116 cells [2]", "result": "level of apoptosis similar to the buffer control"}]}, {"molecule": "O=C1O[C@@H]([C@H](O)CO)C(O)=C1O", "note": "[D-VC, D-ascorbic acid]", "values": [{"measurement": "effect on tumor growth compared to PBS (control) injections", "setting": "HCT116 xenograft tumors", "result": "inhibitory effect on tumor growth; also recorded: appeared to be more effective alone but its effect was not consistent"}, {"measurement": "scarring on tumors (mice with scarring)", "setting": "HCT116 xenograft tumors; after 9 injections / within the first week of injections, intraperitoneally", "result": "2/5"}, {"measurement": "scarring on tumors (mice with scarring)", "setting": "HCT116 xenograft tumors; [3]", "result": "2/5"}, {"measurement": "tumor weight compared to PBS treated tumors", "setting": "HCT116 xenograft tumors", "result": "lower compared to the PBS treated tumors, however these differences were not statistically significant"}, {"measurement": "cells accumulating ROS", "setting": "HCT116 cells [1]", "result": "about 5%"}, {"measurement": "apoptosis (Annexin V FITC)", "setting": "HCT116 cells [2]", "result": "level of apoptosis similar to the buffer control"}]}]}
